The source of these data is patent publication US20210047398A1, “ASPROSIN, A FAST-INDUCED GLUCOGENIC PROTEIN HORMONE” (Baylor College of Medicine, priority 2016, published 2021).

One data set deals with AgRP neurons. Put plainly: Whole-cell patch clamp recordings on AgRP neurons. It is filed as cell-based, mice. The following applies: for effect of pre-treating on asprosin-mediated AgRP neuron activation (firing frequency and resting membrane potential): 100 μM NKY80, 50 μM suramin, 20 μM NF449, 50 μM PTX, 1 μM PKI, 100 μM [D-Lys3]-GHRP-6. The protocol:
Electrophysiology—Whole-cell patch clamp recordings were performed on identified AgRP neurons or POMC neurons in the brain slices containing the arcuate nucleus of the hypothalamus (ARH). In particular, to identify AgRP neurons, the inventors crossed Rosa26-tdTOMATO allele onto the regular AgRP-Cre mice (Tong et al., 2008) to generate AgRP-Cre/Rosa26-tdTOMATO mice, which express TOMATO selectively in AgRP/NPY neurons. In some studies, the inventors crossed NPY-GFP mice (Pinto et al., 2004) with NPS mice to generate NPY-GFP mice with or without the NPS mutation, and GFP-labelled neurons in the arcuate nucleus were recorded. In order to record POMC neurons, the inventors crossed Rosa26-tdTOMATO allele onto the POMC-CreERT2 mice (Berglund et al., 2013) to generate POMC-CreERT2/Rosa26-tdTOMATO mice, which express TOMATO selectively in mature POMC neurons upon tamoxifen induction (0.2 mg/g, i.p. 6 weeks of age). In some studies, the inventors also crossed the AgRP-DTR allele onto POMC-GFP mice, and these mice received DT or saline injections (described above) to generate mice with or without AgRP neurons ablated.
Six to twelve-week old mice were deeply anesthetized with isoflurane and transcardially perfused with a modified ice-cold sucrose-based cutting solution (pH 7.3) containing 10 mM NaCl, 25 mM NaHCO3, 195 mM Sucrose, 5 mM Glucose, 2.5 mM KCl, 1.25 mM NaH2PO4, 2 mM Na-Pyruvate, 0.5 mM CaCl2, and 7 mM MgCl2, bubbled continuously with 95% O2 and 5% CO2 (Ren et al., 2012). The mice were then decapitated, and the entire brain was removed and immediately submerged in the cutting solution. Slices (250 μm) were cut with a Microm HM 650V vibratome (Thermo Scientific). Three brain slices containing the arcuate nucleus were obtained for each animal (Bregma −2.06 mm to −1.46 mm; Interaural 1.74 mm to 2.34 mm), and recordings were made at levels throughout this brain region. The slices were recovered for 1 h at 34° C. and then maintained at room temperature in artificial cerebrospinal fluid (aCSF, pH 7.3) containing 126 mM NaCl, 2.5 mM KCl, 2.4 mM CaCl2, 1.2 mM NaH2PO4, 1.2 mM MgCl2, 11.1 mM glucose, and 21.4 mM NaHCO3) saturated with 95% O2 and 5% CO2 before recording.
Slices were transferred to a recording chamber and allowed to equilibrate for at least 10 min before recording. The slices were superfused at 34° C. in oxygenated aCSF at a flow rate of 1.8-2 ml/min. GFP or TOMATO-labeled neurons in the ARH were visualized using epifluorescence and IR-DIC imaging on an upright microscope (Eclipse FN-1, Nikon) equipped with a moveable stage (MP-285, Sutter Instrument). Patch pipettes with resistances of 3-5 MΩ were filled with intracellular solution (pH 7.3) containing 128 mM K-Gluconate, 10 mM KCl, 10 mM HEPES, 0.1 mM EGTA, 2 mM MgCl2, 0.05 mM Na-GTP and 0.05 mM Mg-ATP. Recordings were made using a MultiClamp 700B amplifier (Axon Instrument), sampled using Digidata 1440A and analyzed offline with pClamp 10.3 software (Axon Instruments). Series resistance was monitored during the recording, and the values were generally <10 MΩ and were not compensated. The liquid junction potential was +12.5 mV, and was corrected after the experiment. Data were excluded if the series resistance increased dramatically during the experiment or without overshoot for action potential. Currents were amplified, filtered at 1 kHz, and digitized at 20 kHz. Current clamp was engaged to test neural firing frequency and resting membrane potential (RM) at the baseline and puff delivered recombinant Asprosin (500 ms at various concentrations indicated in the figures). For the asprosin antibody pre-incubation experiment, asprosin and anti-asprosin mAB or IgG were gently mixed at a 1:100 ratio, and then kept on ice for one hour before recording. After AgRP or POMC neuron response to asprosin alone was confirmed, the mixture of recombinant asprosin and anti-asprosin mAB or IgG was perfused to treat the AgRP or POMC neurons for 4 minutes. […]

Data set [1] in a line: SPECT scans and gamma counting after intravenous I125-asprosin. It is filed as in vivo, mice. The settings on record: 15 minutes after intravenous injection of 150 μCi. How it is done:
FIGS. 22A-22E: Asprosin traffics to the liver in vivo and binds the hepatocyte surface with high affinity in a saturable and competitive manner. (FIG. 22A) SPECT scans were performed 15 minutes after intravenous injection with 150 μCi I125-asprosin, boiled I125-asprosin, or free I125 in live, anesthetized mice previously injected with bismuth as a hepatic contrast agent. 3 representative images are shown in axial and coronal planes. (FIG. 22B) Liver asprosin accumulation was measured as liver photon intensity from mice in (FIG. 22A). (FIG. 22C) Tissue radioactivity (normalized to tissue weight) was measured using a γ-counter after sacrificing mice from (FIG. 22A), 45 minutes following injection (n=4 mice). (FIG. 22D) Sandwich ELISA was used to measure plasma His tag (recombinant asprosin contains an N-terminal His tag) in WT mice before injection and 15, 30, 60 and 120 minutes after injection with 30 μg recombinant asprosin. The time taken for peak signal to fall to half-maximal level is indicated by the arrow. […] Specific binding (shown in red) was calculated as the difference between the two curves. Data are represented as the mean±SEM.
Recombinant asprosin was labeled with iodine-125 (I^125) and injected intravenously in mice, followed by single-photon emission computerized tomography (SPECT) scans to identify sites of accumulation. […]

In data set [2] the test system is mouse primary hepatocytes. How it is done:
Cell Culture. Primary mouse hepatocytes were isolated from 8- to 12-week-old WT mice using standard methodology. […] The cells were treated with 50 nM recombinant asprosin or GFP for 10 minutes for cAMP and PKA assays and for 2 hours for the in vitro glucose production assay. Cells were pretreated with various inhibitors for 1 hour prior to treatment with asprosin, GFP, Glucagon or Epinephrine. cAMP was measured from cell lysates using the cAMP direct immunoassay kit from Cell Biolabs. PKA activity was measured from cell lysates using the PKA kinase activity kit from Enzo Lifesciences, Inc. Media glucose content was measured using the Glucose Colorimetric Assay Kit from Biovision. Results were normalized to protein content.

A short description of data set [3]: Asprosin plasma half-life (biotinylated asprosin sandwich ELISA). It is filed as in vivo. The settings on record: mammalian cell expressed asprosin, subcutaneous, mice, FIG. 50B. The protocol: Asprosin Plasma Half-life—Asprosin expressed in HEK293 was labeled with biotin using a EZ-Link Sulfo-NHS-Biotin kit (Thermo Scientific), and excess biotin was removed using a Zeba Spin desalting column (Thermo Scientific). Final protein concentration was estimated using a BCA assay (Thermo Scientific). Approximately 30 ug/mouse of labeled asprosin was injected subcutaneously into C57Bl/6 mice. Blood was drawn before injection (baseline), and 30, 60, 120, and 360 minutes after injection, as well as after 24 and 48 hours. Biotinylated asprosin was detected using a custom designed sandwich ELISA. A plate was coated with the anti-asprosin monoclonal antibody (capture antibody), total plasma asprosin was bound, and only biotinylated asprosin was detected using Streptavidin-HRP.
(In an ELISA, binding on a coated surface is turned into a signal by an enzyme label.)

The nature of data set [4]: Food intake, energy expenditure and body composition after asprosin gain-of-function. It is filed as in vivo, mice. The following applies: single subcutaneous dose, C57Bl/6 mice, vs GFP. How it is done: Mouse food intake and energy expenditure—Food intake and energy expenditure were measured using the CLAMS System (Comprehensive Lab Animal Monitoring System, Columbus Instruments). Animals were acclimatized in the recording chambers for 48-72 hours, and measurements were taken subsequently for 24 hours during the light cycle and dark cycle. Mice received food and water ad libitum, or after an overnight fast where indicated. Oxygen consumption and food intake were recorded.
As previously described (Yan et al., 2016), male mice were anesthetized with inhaled isoflurane and stainless steel cannulas (Plastics One) were inserted into the lateral ventricles (0.34 mm caudal and 1 mm lateral from bregma; depth, 2.3 mm). […] These mice received 10 ng GFP ([…]) twice a day for 3 continuous days, and 10 ng asprosin (in […]) the last day. The BioDAQ food intake monitoring system (Research Diets, Inc) was used to monitor the food intake, and the food intake from the last GFP injection and asprosin were compared.
Mouse body composition—Body composition was analyzed using an ECHO-MRI system (Echo medical systems, Texas) or DEXA scans where indicated. Lean mass, fat mass, and overall body weight were calculated using the manufacturer-provided software.

For [D-Lys3]-GHRP-6 [reference compound], in the data set on AgRP neurons, the “effect of pre-treating on asprosin-mediated AgRP neuron activation (firing frequency and resting membrane potential)” value (from here on “effect of pre-treating”) is recorded as “no impact”.

Turning to PTX: Gαi inhibitor [reference compound], in the data set with AgRP neurons, the “effect of pre-treating” value is on record as “no impact”.

Take `O=C(Nc1cc(C(=O)Nc2ccc(S(=O)(=O)[O-])cc2S(=O)(=O)[O-])cc(C(=O)Nc2ccc(S(=O)(=O)[O-])cc2S(=O)(=O)[O-])c1)Nc1cc(C(=O)Nc2ccc(S(=O)(=O)[O-])cc2S(=O)(=O)[O-])cc(C(=O)Nc2ccc(S(=O)(=O)[O-])cc2S(=O)(=O)[O-])c1.[Na+].[Na+].[Na+].[Na+].[Na+].[Na+].[Na+].[Na+]` [NF449, reference compound]: the “effect of pre-treating” value in the data set with AgRP neurons is “completely prevented”.

For the molecule `Nc1ncc2c(n1)CC(c1ccco1)CC2=O` (stereo not drawn) [NKY80, reference compound], in the data set on AgRP neurons, the “effect of pre-treating” value is given as “completely prevented”.

For “I^125-Asprosin: Recombinant asprosin labeled with iodine-125”, the “site of accumulation (SPECT, liver photon intensity)” value in data set [1] is given as “trafficked primarily to the liver”.

With `Cc1ccc(C(=O)Nc2ccc(S(=O)(=O)O)c3cc(S(=O)(=O)O)cc(S(=O)(=O)O)c23)cc1NC(=O)c1cccc(NC(=O)Nc2cccc(C(=O)Nc3cc(C(=O)Nc4ccc(S(=O)(=O)O)c5cc(S(=O)(=O)O)cc(S(=O)(=O)O)c45)ccc3C)c2)c1` [suramin, reference compound], the “effect of pre-treating” value in the data set on AgRP neurons was “completely prevented”. Also, in data set [2], the “effect on asprosin-mediated hepatocyte PKA activation” value is on record as “blocked”.

B1: mammalian-generated asprosin: Human asprosin with C-terminal 6x His tag expressed in Expi293 mammalian cells, glycosylated (protein)
chain: STNETDASNIEDQSETEANVSLASWDVEKTAIFAFNISHVSNKVRILELLPALTTLTNHNRYLIESGNEDGFFKINQKEGISYLHFTKKKPVAGTYSLQISSTPLYKKKELNQLEDKYDKDYLSGELGDNLKMKIQVLLHHHHHHH
With B1, the results for the plasma half-life in data set [3] and in data set [3] (listed as Mammalian asprosin) were ~2.42 h and “approximately 145 minutes”, respectively. Further, the “dose-dependency of AgRP neuron activation (firing frequency, membrane potential)” value in the data set with AgRP neurons (0.01-100 nM, intact slices) is “dose-dependent activation”. Also, the “EC50 for AgRP neuron activation” value in the data set on AgRP neurons (firing frequency and membrane potential) was “nanomolar to subnanomolar range”. Also, the “food intake over the next 24-hr” value in data set [4] was “greater food intake”.
